Earlier results, collected in patent US9932637B2, “Genetic polymorphisms associated with cardiovascular disorders and drug response, methods of detection and uses thereof” (CELERA CORPORATION, priority 2003, dated 2018).

Tested on: subjects with average cholesterol levels
Conditions: AFCAPS/TexCAPS; cited from earlier work

CC[C@H](C)C(=O)O[C@H]1C[C@@H](C)C=C2C=C[C@H](C)[C@H](CC[C@@H]3C[C@@H](O)CC(=O)O3)[C@H]21 [lovastatin]
LDL-C reduced (average): 25% | events decreased: 37%
